We go through six compounds from patent US20230183228A1, “SUBSTITUTED PYRAZOLYL COMPOUNDS AND METHODS OF USE THEREOF” (Chinook Therapeutics Canada, Inc., priority 2020, published 2023).

Data set [1] has as its target T1, human recombinant C-terminal His-tagged LDHA (Homo sapiens, UniProt P00338).
T1 construct: His (C)
Description: Human LDHA enzyme assay, human serum albumin (HSA) shift. The class given is biochemical. The following applies: final concentration 10% HSA. Here is the method: (§1) Compounds were dissolved in DMSO and preincubated with human recombinant C-terminal His-tagged LDHA (0.070 μg/mL) for 10 min at room temperature in assay buffer consisting 50 mM Tris, pH 7.5 and 100 mM NaCl in black walled, clear bottom, non-binding 96-well plates. Equal volumes of substrate solution containing 100 μM of pyruvate and 100 μM of NADH in assay buffer was added to each well (final concentration 0.035 μg/mL enzyme, 50 μM pyruvate, 50 μM NADH, and 1% DMSO). For human serum albumin (HSA) shift assay, the compounds were preincubated with the enzyme in assay buffer containing 20% HSA before substrate addition (final concentration 10% HSA). The reaction was monitored at 340 nm on a plate reader (Molecular Devices) in kinetic mode for 15 min. The rate of the reaction was determined by plotting absorbance vs time.

Data set [2] concerns the target T1, human recombinant C-terminal His-tagged LDHA. Description: Human LDHA enzyme assay. The data set is classed as biochemical. The following applies: 50 μM pyruvate, 50 μM NADH, no HSA. Here is the method: as §1
A short description of data set [3]: Liver and plasma concentrations in c57/bl6 mice. The data set is classed as in vivo. The note with it: 20 mg/kg PO. As for the experimental part: [The procedure below names another organism; the source says it served here with some conditions changed.] Plasma and liver (target organ) concentrations of test compounds were determined in rats following a single per os (PO) administration of the test compounds. Male Sprague Dawley rats (6-8 weeks of age, Charles River Labs) were fasted overnight and a single dose of test compounds (10 mg/kg; as a suspension in 0.5% methyl cellulose) was administered by PO gavage. Rats were then sacrificed at 4 and 24 h after administration of the test compounds, and plasma and liver tissue samples were collected. Liver tissue samples were homogenized in 5 volumes of water:acetonitrile (50/50; v/v) mixture using a bead mill homogenizer. Plasma and liver homogenate samples were processed by protein precipitation using acetonitrile and the concentrations of the test compounds were determined by liquid chromatography-tandem mass spectrometry (SciEx triple quad 5500+ with Exion UPLC).
Liver and plasma exposures at the 4 h and 24 h timepoints for the various compounds are described in Table 5 below. Measured compound concentrations are as follows: ++++>10 μM; 10 μM≥+++>5 μM; 5 μM≥++>1 μM; 1 μM≥+>0.25 μM; and 0.25 μM≥−.

In data set [4] the test system is fresh primary mouse hepatocytes. Description: Primary mouse hepatocyte assay (lactate production). The class given is cell-based. Here is the method: Compounds were evaluated in an ex vivo assay consisting of fresh primary mouse hepatocytes. Hepatocytes were isolated from wild type mice (C57BL/6NCrl from Charles River Labs) using a two-step collagenase perfusion technique which involves a sequential perfusion of anesthetized mice with Hanks' balanced salt solution and collagenase. Following isolation, viable wild type hepatocytes (0.1 M cells/well) were incubated with test compound in presence of pyruvate and compound potency was evaluated by measuring the lactate produced by the cells using liquid chromatography coupled to mass spectrometry. Chromatographic separation was achieved on an XDB-C18 4.6×50 mm column (Agilent, Cat #927975-902) at a flow rate of 1 mL/min Mobile phase A consisted of 0.1% formic acid in water and mobile phase B consisted of acetonitrile. A gradient program was initiated starting at 5% B which was held for 1 minutes, then ramped from 5% to 95% B over 1 minute. After holding at 95% B for 1 minute, the program changed back to 5% B. The column was equilibrated with 5% B for […] before the next injection. The mass spectrometer was operated in negative mode with electrospray ionization. The following transition along with their collision energy (CE) were used: 89→43 (CE: −16 V) for lactate and 92→45 (CE: −16 V) for ^13C3-Lactate (internal standard).

The next data set deals with PH1 patients. The note with it: cited from earlier work.
The mark [5] stands for this setting: Run at 0.4M cells/well concentration of hepatocytes.

A word on the IC50: it is the midpoint of a concentration-inhibition curve.

Marks after values point to notes of the source that are not given here.

Turning to `NS(=O)(=O)c1ccc(Cc2c(-c3ccc(F)cc3)nn(-c3nc(C(=O)O)cs3)c2CC2CC2)cc1` [Example 5, 2-(5-(cyclopropylmethyl)-3-(4-fluorophenyl)-4-(4-sulfamoylbenzyl)-1H-pyrazol-1-yl)thiazole-4-carboxylic acid], the IC50 was 1 to 10 nM in data set [1], < 1 nM in data set [2] and 250 to 1000 nM in data set [4] (setting [5]). Also, the “Measured Compound Concentrations Liver - 4 h” value in data set [3] was “++* (5 μM≥++>1 μM)”. In data set [3], the “Measured Compound Concentrations Plasma - 4 h” value is “−* (0.25 μM≥−)”.
The like results for `NS(=O)(=O)c1ccc(Cc2c(-c3ccc(F)cc3)nn(-c3nc(C(=O)O)cs3)c2CCC2CC2)cc1` [Example 6, 2-(5-(2-cyclopropylethyl)-3-(4-fluorophenyl)-4-(4-sulfamoylbenzyl)-1H-pyrazol-1-yl)thiazole-4-carboxylic acid] were, in that order, 10 to 100 nM, < 1 nM, 250 to 1000 nM, “++* (5 μM≥++>1 μM)” and “−* (0.25 μM≥−)”.
Regarding `CC(C)Oc1cc(-c2nn(-c3nc(C(=O)O)cs3)c(CC3CC3)c2Cc2ccc(S(N)(=O)=O)c(F)c2)ccc1F` [Example 7, 2-(5-(Cyclopropylmethyl)-3-(4-fluoro-3-isopropoxyphenyl)-4-(3-fluoro-4-sulfamoylbenzyl)-1H-pyrazol-1-yl)thiazole-4-carboxylic acid], the concentration for half-maximal inhibition (IC50) was 1 to 10 nM in data set [1], < 1 nM in data set [2] and 250 to 1000 nM in data set [4] (setting [5]). For the same compound, in data set [3], the “Measured Compound Concentrations Liver - 4 h” value is recorded as “++* (5 μM≥++>1 μM)”. For the same compound, the “Measured Compound Concentrations Plasma - 4 h” value in data set [3] is on record as “−* (0.25 μM≥−)”.
`NS(=O)(=O)c1ccc(Cc2c(-c3ccc(F)cc3)nn(-c3nc(C(=O)O)cs3)c2CC2CC2)cc1Cl` [Example 10, 2-(4-(3-Chloro-4-sulfamoylbenzyl)-5-(cyclopropylmethyl)-3-(4-fluorophenyl)-1H-pyrazol-1-yl)thiazole-4-carboxylic acid]: the IC50 in data set [1] is 10 to 100 nM. The half-inhibitory concentration (IC50) in data set [2] is < 1 nM. Moreover, in data set [3], the “Measured Compound Concentrations Liver - 4 h” value is recorded as “+++* (10 μM≥+++>5 μM)”, the “Measured Compound Concentrations Liver - 24 h” value was “−* (0.25 μM≥−)”, the “Measured Compound Concentrations Plasma - 4 h” value is given as “−* (0.25 μM≥−)” and the “Measured Compound Concentrations Plasma - 24 h” value is on record as “−* (0.25 μM≥−)”. The IC50 in data set [4] (0.1 M cells/well) fell in the range of 100 to 250 nM.
Regarding `NS(=O)(=O)c1ccc(Cc2c(-c3ccc(F)c(OC(F)F)c3)nn(-c3nc(C(=O)O)cs3)c2CC2CC2)cc1F` [Example 13, 2-(5-(cyclopropylmethyl)-3-(3-(difluoromethoxy)-4-fluorophenyl)-4-(3-fluoro-4-sulfamoylbenzyl)-1H-pyrazol-1-yl)thiazole-4-carboxylic acid], in data set [1], the half-maximal inhibitory concentration (IC50) lay within 1 to 10 nM. Further, the IC50 in data set [2] was < 1 nM. For the same compound, in data set [3], the “Measured Compound Concentrations Liver - 4 h” value is reported as “++* (5 μM≥++>1 μM)”, the “Measured Compound Concentrations Liver - 24 h” value is recorded as “−* (0.25 μM≥−)”, the “Measured Compound Concentrations Plasma - 4 h” value is “−* (0.25 μM≥−)” and the “Measured Compound Concentrations Plasma - 24 h” value is reported as “−* (0.25 μM≥−)”. The same compound came in with a 50% inhibitory concentration (IC50) in data set [4] (setting [5]) of 250 to 1000 nM.
As for `Cc1ncc(CO)c(CO)c1O` [Pyridoxine], the “lowering of urinary oxalate” value with PH1 patients is recorded as “approximately 30%”.
